Measurements from PMC12282101, “Heat shock protein 90 chaperone activity is required for hepatitis A virus replication” (Journal of Virology, 2025).
“Also recorded” adds a separate entry of the source. Like-named read-outs stand apart in the source and are kept apart here.

Legend:
[1] = tested on: 18f-NLuc reporter virus; assay: microbe, parasite or virus in culture; assay type: cell-based, Hepatitis A virus; conditions: Hepatovirus A, Huh-7.5.1, 72 h, read-out: Normalized HAV production
[2] = tested on: HAV; assay: microbe, parasite or virus in culture; assay type: cell-based, Hepatitis A virus; conditions: Hepatovirus A; 30 nM, Huh-7.5.1 cells; read-out: Inhibition of infectious virus released
[3] = tested on: HAV; assay: microbe, parasite or virus in culture; assay type: cell-based, Hepatitis A virus; conditions: Hepatovirus A, read-out: IC50, HAV replication by RT-qPCR
[4] = tested on: 18f-NLuc reporter virus; assay: microbe, parasite or virus in culture; assay type: cell-based, Hepatitis A virus; conditions: Hepatovirus A, HEK-293T, read-out: IC50, HAV replication by NLuc
Protocol: Cells were lysed in 1× passive lysis buffer (Promega, #E1941) for 15 min at room temperature, then lysates were transferred to opaque white 96-well plates (Corning, #3912). NLuc activity was quantified using the NLuc GLOW Assay kit (Nanolight Technology, #325), and FLuc assays were carried out with the Luciferase Assay System (Promega, E1500). Luminescence was measured using a Biotek Synergy II multi-mode plate reader (BioTek Instruments).

[5] = tested on: 18f-NLuc reporter virus; assay: microbe, parasite or virus in culture; assay type: cell-based, Hepatitis A virus; conditions: Hepatovirus A, FRhK-4, 48 h, read-out: IC50, HAV replication by NLuc
[6] = tested on: PV1-NLuc; assay: microbe, parasite or virus in culture; assay type: cell-based, type 1 poliovirus; conditions: Enterovirus C, Huh7.5, 16 h, read-out: IC50, PV1-NLuc replication
[7] = tested on: PV1-NLuc; assay: microbe, parasite or virus in culture; assay type: cell-based, type 1 poliovirus; conditions: Enterovirus C, FRhK-4, 16 h, read-out: IC50, PV1-NLuc replication
[8] = tested on: 18f-NLuc reporter virus; assay type: cell-based, Hepatitis A virus
[9] = tested on: HAV-FLuc; assay: microbe, parasite or virus in culture; assay type: cell-based, Hepatitis A virus
[10] = tested on: RV-B14-FLuc; assay type: cell-based, rhinovirus B14; conditions: up to 1 µM, Huh-7.5 cells
[11] = tested on: PeV-A1-NLuc; assay type: cell-based, human parechovirus A1; conditions: A549 cells
[12] = tested on: HAV IRES; assay type: cell-based, Hepatitis A virus; conditions: 100 nM
[13] = tested on: 3C^pro; assay type: cell-based, Hepatitis A virus
[14] = tested on: 3C^pro; assay type: cell-based, Hepatitis A virus; remark: listed apart in the source
[15] = tested on: 18f virus; assay type: cell-based, Hepatitis A virus; conditions: cells infected 72 h, then treated 24 h
[16] = tested on: ACC1; assay: Immunoblot of ACC1 in Huh-7.5 cells; assay type: cell-based, human; conditions: 200 nM, 24 hours
[17] = tested on: HAV; conditions: FRhK4 fetal rhesus kidney cells; ref 16 Aragonès et al.; read-out: IC50, HAV replication; cited from earlier work
[18] = tested on: poliovirus; conditions: HeLa S3 cells; read-out: IC50, poliovirus replication; cited from earlier work
[19] = in vitro; conditions: human, CC50, Huh-7.5 cells, cellular ATP assay
[20] = in vitro; conditions: rhesus monkey, CC50, FRhK4 cells
[21] = tested on: HM175/18f virus; assay: microbe, parasite or virus in culture; conditions: Hepatovirus A
[22] = tested on: 18f-NLuc reporter virus; assay: microbe, parasite or virus in culture; conditions: Hepatovirus A, Huh7.5, 48 h, read-out: IC50, HAV replication by NLuc
[23] = tested on: Huh-7.5.1 cells; assay: Cell viability in the chemical screen (Cell TiterGlo); conditions: 10 µM compound, 72 h

With `COC1=C2C[C@@H](C)C[C@H](OC)[C@H](O)[C@@H](C)/C=C(\C)[C@H](OC(N)=O)[C@@H](OC)/C=C\C=C(/C)C(=O)NC(=CC1=O)C2=O` [Geldanamycin] as the compound, how does the activity at 10 µM [1] read?
Its activity at 10 µM is 0.0718%.

And the inhibition at 0.03 µM [2]?
Its inhibition at 0.03 µM is over 50%.

And the IC50 [3]?
The IC50 was 4.3 nM.

What about the IC50 [4] of the same compound?
Its IC50 is 4.7 nM.

And the IC50 [5]?
The IC50 was 804 nM.

What about the IC50 [6] of the same compound?
Its IC50 is 183 nM.

And the IC50 [7]?
The IC50 was over 10000 nM.

What about the “NLuc expression at 48 hours post-infection” value [8] of the same compound?
Its value is “neither case did either HSP90 inhibitor reduce NLuc expression”.

And the “Replication of subgenomic HAV RNA replicon (in words)” value [9]?
The value was “potently inhibited”.

And the IC50 ([9]; Hepatovirus A, Huh7.5, 24 h, read-out: IC50, HAV-FLuc replicon)?
Its IC50 is 29.1 nM.

And the “Luciferase expression from subgenomic rhinovirus B14 replicon (in words)” value [10]?
Its value is “does not inhibit”.

What about the “Luciferase expression from subgenomic rhinovirus B14 replicon (in words)” value ([10]; listed as geldanamycin) of the same compound?
Its value is “fails to inhibit”.

And the “Replication of subgenomic human parechovirus A1 replicon (in words)” value [11]?
Its value is “minimally inhibits; also recorded: resistant”.

What about the “GFP synthesis from circRNA HAV IRES reporter” value [12] of the same compound?
Its value is “had no effect”.

And the “GFP synthesis from circRNA HAV IRES reporter” value ([12]; listed as geldanamycin)?
Its value is “neither geldanamycin nor 17-AAG inhibited”.

And the “Inhibition of 3ABCD processing” value ([13]; 0.1 µM)?
Its value is “no inhibition”.

And the “Amount of 3ABC product from HA-3ABCD” value ([13]; 1 µM)?
The value was “modestly reduced”.

What about the “Cleavage of GFP-MAVS by 3ABC” value [14] of the same compound?
Its value is “no impact”.

What about the “VP1 and 3ABC proteins in infected cell lysates” value [15] of the same compound?
Its value is “concentration-related decreases”.

What about the “Abundance of ACC1” value [16] of the same compound?
The value was “did not reduce”.

What about the IC50 [17] of the same compound?
Its IC50 is 5370 nM.

What about the IC50 [18] of the same compound?
The IC50 was 110 nM.

And the CC50 [19]?
The CC50 was 5100 nM.

And the CC50 [20]?
The CC50 was over 10000 nM.

What about the CC50 ([20]; cellular ATP assay) of the same compound?
Its CC50 is 59000 nM.

What about the IC50 ([21]; Huh7.5, in Homo sapiens, read-out: 50% inhibitory concentration, HAV replication) of the same compound?
The IC50 was 8.7 to 11.8 nM.

What about the IC50 ([21]; Huh-7.5.1, read-out: IC50, HAV replication by RT-qPCR) of the same compound?
Its IC50 is 11.8 nM.

What about the IC50 [22] of the same compound?
The IC50 was 8.7 nM.

What about the “Viability Percent DMSO” value [23] of the same compound?
Its value is 61 Percent DMSO.
